From article PMC6657668, “Porcine Beta-Defensin 2 Provides Protection Against Bacterial Infection by a Direct Bactericidal Activity and Alleviates Inflammation via Interference With the TLR4/NF-κB Pathway” (Frontiers in Immunology, 2019)
Where a SMILES comes first, the peptide text is derived from it.

Assays:
[1] = test system: dextran sodium sulfate (DSS) in mice; conditions: ref [33], cited from earlier work
Description: The antibiotic resistance of pathogenic bacteria has become a global threat ([30]). Defensins are natural peptides secreted by many species and implicated in resisting bacterial infection ([31]). PBD-2 is one of the defensins expressed in pigs. […] The invasion of S. Typhimurium can increase the expression of PBD-2 in porcine epithelial cells ([32]). […] PBD-2 also improves the growth perf ... || The colitis caused by S. Typhimurium mainly results from intestinal mucosal inflammation after the breakage of intestinal epithelial barrier by pathogens ([26]). […] AMPs have various structures which may lead to their different act ...

NF-κB = test: mRNA level of NF-κB in RAW 264.7 cells (RT-PCR); format: cell-based, mouse; conditions: LPS 1 μg/ml with PBD-2 10 μg/mL, 4 h; n = 6
Protocol: The cDNA of the RAW 264.7 cells treated with LPS (1 μg/ml) alone or together with PBD-2 (10 μg/mL) for 4 h (n = 6 each group) was used as a template by using the primers NF-κB-01 ([…]) and NF-κB-02 ([…]) and the primers GAPDH-01 and GAPDH-02 for the housekeeping gene GAPDH to detect the expression level of NF-κB. The relative expression level of NF-κB is shown as 2^−ΔCt (mean ± SEM), where ΔCt = Ct NF−κB−CtGAPDH. The protocol consisted of 40 replication cycles. The Ct values above 34 cycles were considered non-detectable.

BSA = test: Interaction with BSA (control), far-Western blot; format: binding, bovine; conditions: PBD-2 10 μg/ml, 37°C, 2 h
Protocol: TLR4 and BSA proteins as a control were subject to SDS-PAGE and electro-transferred onto a PVDF membrane. The PVDF membrane was blocked with 10 μg/ml BSA in PBST at 37°C for 2 h, washed five times with PBST and incubated with PBST that contained 10 μg/ml PBD-2 or 10 μg/ml BSA as a control at 37°C for 2 h. After the membranes were washed, the PVDF membrane was incubated with anti-PBD-2 antisera (with a titer 1:500,000) at 37°C for 2 h and washed five times with PBST. The membrane was then incubated with the secondary antibodies, namely, goat anti-mouse IgG (# AS003, ABclonal®, Wuhan, China), at 37°C for 2 h and washed five times with PBST. Lastly, immune-reactive bands were detected using an ECF Western blot system (Tanon 5200 Multi, Shanghai, China).

JNK = test: Western blot of JNK and p-JNK in RAW 264.7 cells; format: cell-based, mouse; conditions: LPS 30 min with various concentrations of PBD-2 (Figure S4)
Protocol: (§1) RAW 264.7 cells were treated with LPS (1 μg/ml) alone or together with PBD-2 (10 μg/mL). […] Proteins were firstly analyzed with SDS-PAGE and then electro-transferred onto a PVDF (#ISEQ00010, Biosharp®, Beijing, China) membrane. The PVDF membrane was blocked with 1/100 bovine serum albumin (BSA, #V900933-100G, VETEC, Sigma-Aldrich®, St. Louis, MO, USA) at 10 μg/ml at 37°C for 2 h, washed with PBST five times, incubated with the antisera against p-p65 (# 3033), p65 (# 4764), p-ERK (# 4370), ERK (# 4695), p-p38 (# 4511), p38 (# 8690), p-JNK (# 4668), JNK (# 9258) (Cell Signaling Technology®, Danvers, MA, USA), and β-actin (# AA128, Beyotime®, Shanghai, China) at 2 μg/ml at 37°C for 2 h and washed five times again. The PVDF membrane was subsequently incubated with 1 μg/ml secondary antibody, namely, goat anti-rabbit IgG (# 7074S, Cell Signaling Technology®, Danvers, MA, USA), at 37°C for 2 h and washed five times. Lastly, immune-reactive bands were detected using an ECF Western blot system (Tanon 5200 Multi, Shanghai, China) and quantified using AlphaImager 2200 analysis software.
(§2) Supplementary file Image_4.TIF: Figure S4 Effects of PBD-2 on ERK, p38, and JNK signaling pathways. Cells were treated with LPS for 30 min with or without various concentrations of PBD-2. […] The signal intensity of each band was quantified (B–D). […]

S. Typhimurium [2] = test: Spleen and caecum weight ratios of mice infected with S. Typhimurium; conditions: PBD-2 expressed in TG mice; oral 2.5 × 10^8 CFU; legend: 24 h post-infection; WT n = 9, TG n = 8
Protocol: (§3) Four infection experiments were conducted to determine the resistance to S. Typhimurium of the TG mice. For body weight measurements, 7 WT and 7 TG mice were orally administered with 2.5 × 10^8 CFU of S. Typhimurium, and the body weight of each mouse was measured on days 1, 2, 3, 4, and 5 after infection. For the detection of the tissue weight ratios, bacterial loads in tissues and tissue lesions after S. Typhimurium infection, 9 WT and 8 TG mice were orally administered with 2.5 × 10^8 CFU of S. Typhimurium. The spleen, caecum and body weights of the mice were weighed at 24 h post-infection. The bacterial loads in the tissues were also measured ([26]). The spleen and caecum were weighed and homogenized in cold PBS at a ratio of 4 ml per gram of tissue and coated plates. The bacterial numbers in the homogenates were counted by serially diluting the homogenates and spreading on plates. Caeca were harvested for histopathological analysis by using the methods described above. The intestinal damage, including epithelial damage, submucosal oedema, and neutrophil aggregation, was observed.

p38 = test: Western blot of p38 and p-p38 in RAW 264.7 cells; format: cell-based, mouse; conditions: LPS 30 min with various concentrations of PBD-2 (Figure S4)
Protocol: as §1, §2

S. Typhimurium [3] = test: Body weight loss of mice infected with S. Typhimurium; conditions: PBD-2 expressed in TG mice; oral 2.5 × 10^8 CFU; days 1-5; n = 7; vs WT
Protocol: as §3

S. Typhimurium [4] = test system: S. Typhimurium; parameters: species or system Salmonella Typhimurium 14028 (in mice); conditions: mouse, in vivo, po

Q: What does the source list for CC[C@H](C)[C@H](NC(=O)[C@@H]1CSSC[C@@H]2NC(=O)[C@@H]3CCCN3C(=O)[C@H](CO)NC(=O)[C@H](Cc3ccccc3)NC(=O)[C@H](CC(N)=O)NC(=O)[C@@H]3CSSC[C@H](NC(=O)[C@H]([C@@H](C)O)NC(=O)CNC(=O)[C@H](CCC(=O)O)NC(=O)[C@H]([C@@H](C)CC)NC(=O)[C@H](CCCNC(=N)N)NC(=O)[C@H](CC(N)=O)NC(=O)[C@H](Cc4ccccc4)NC(=O)[C@H](CC(C)C)NC(=O)[C@@H]4CCCN4C2=O)C(=O)N[C@@H](Cc2ccc(O)cc2)C(=O)N[C@@H](CO)C(=O)NCC(=O)N[C@@H](CCCCN)C(=O)N[C@@H](C)C(=O)N[C@@H](CCCCN)C(=O)N[C@@H](CSSC[C@H](NC(=O)[C@@H](NC(=O)[C@H](Cc2ccc(O)cc2)NC(=O)[C@H](Cc2c[nH]cn2)NC(=O)[C@@H](N)CC(=O)O)[C@@H](C)CC)C(=O)N[C@@H](C)C(=O)N[C@@H](CCCCN)C(=O)N[C@@H](CCCCN)C(=O)NCC(=O)NCC(=O)N[C@@H]([C@@H](C)O)C(=O)N3)C(=O)N1)C(=O)N[C@@H](CCCNC(=N)N)C(=O)O [PBD-2, Porcine beta-defensin 2] (HELM PEPTIDE1{D.H.Y.I.C.A.K.K.G.G.T.C.N.F.S.P.C.P.L.F.N.R.I.E.G.T.C.Y.S.G.K.A.K.C.C.I.R}$PEPTIDE1,PEPTIDE1,5:R3-34:R3|PEPTIDE1,PEPTIDE1,12:R3-27:R3|PEPTIDE1,PEPTIDE1,17:R3-35:R3$$$V2.0; N-terminus and C-terminus assumed)?
A: mucosal damage caused by DSS ([1]; mice): alleviate mucosal damage caused by dextran sodium sulfate (DSS) in mice; DSS-induced inflammation, NF-κB signaling [1]: suppresses the DSS-induced inflammation by suppressing the NF-κB signaling pathway; inflammation in DSS-induced colitis [1]: attenuates inflammation in DSS-induced colitis; mRNA levels of NF-κB after LPS induction (NF-κB): reduce the mRNA levels of NF-κB after LPS induction (p < 0.01); binding to BSA on PVDF membrane (BSA): not to BSA; LPS-induced phosphorylation of JNK (JNK): did not affect the LPS-induced phosphorylation of ERK, p38, and JNK; caecum weight ratio (organ weight/body weight), caecal enlargement (S. Typhimurium [2]): the WT mice exhibited more severe splenic atrophy and caecal enlargement compared with the TG mice on day 2 post-infection (p < 0.05); spleen weight ratio (organ weight/body weight), splenic atrophy (S. Typhimurium [2]): the WT mice exhibited more severe splenic atrophy and caecal enlargement compared with the TG mice on day 2 post-infection (p < 0.05); LPS-induced phosphorylation of p38 (p38): did not affect the LPS-induced phosphorylation of ERK, p38, and JNK; body weight loss (S. Typhimurium [3]): less degree of body weight loss from day 2 onwards (p < 0.05); survival at lower bacterial dose (S. Typhimurium [4]): all the WT and TG mice survived until the end of the experiments; survival rate (S. Typhimurium [4]): 70%
